Experimental data from ChEMBL document CHEMBL1131703, “Azaindole derivatives with high affinity for the dopamine D4 receptor: synthesis, ligand binding studies and comparison of molecular electrostatic potential maps” (Bioorg Med Chem Lett, 1999).

Experiments:
[1] = target: T1, D(4) dopamine receptor (Homo sapiens, UniProt P21917); assay: Binding affinity evaluated for the displacement of [3H]spiperone against human dopamine receptor D4
T1 sequence (P21917 whole entry): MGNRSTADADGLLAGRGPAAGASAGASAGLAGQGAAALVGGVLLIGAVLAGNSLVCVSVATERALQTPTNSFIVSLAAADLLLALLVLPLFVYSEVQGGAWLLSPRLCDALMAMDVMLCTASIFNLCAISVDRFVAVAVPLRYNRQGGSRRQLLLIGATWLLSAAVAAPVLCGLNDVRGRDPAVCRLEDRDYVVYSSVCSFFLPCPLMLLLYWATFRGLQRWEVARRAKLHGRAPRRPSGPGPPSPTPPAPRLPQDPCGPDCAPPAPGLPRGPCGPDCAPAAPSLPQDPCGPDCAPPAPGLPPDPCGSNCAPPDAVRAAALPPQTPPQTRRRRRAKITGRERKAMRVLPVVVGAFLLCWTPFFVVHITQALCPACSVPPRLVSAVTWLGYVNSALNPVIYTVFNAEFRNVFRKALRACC

[2] = target: D(1A) dopamine receptor (Bos taurus, UniProt Q95136); assay: Binding affinity was evaluated for the displacement of [3H]-SCH- 23390 against bovine Dopamine receptor D1
[3] = target: D(3) dopamine receptor (Homo sapiens, UniProt P35462); assay: Binding affinity evaluated for the displacement of [3H]-spiperone against human dopamine receptor D3
[4] = target: D(2) dopamine receptor (Bos taurus, UniProt P20288); assay: Binding affinity was evaluated for the displacement of [3H]spiperone against bovine Dopamine receptor D2
Sequence of D(2) dopamine receptor (P20288 whole entry): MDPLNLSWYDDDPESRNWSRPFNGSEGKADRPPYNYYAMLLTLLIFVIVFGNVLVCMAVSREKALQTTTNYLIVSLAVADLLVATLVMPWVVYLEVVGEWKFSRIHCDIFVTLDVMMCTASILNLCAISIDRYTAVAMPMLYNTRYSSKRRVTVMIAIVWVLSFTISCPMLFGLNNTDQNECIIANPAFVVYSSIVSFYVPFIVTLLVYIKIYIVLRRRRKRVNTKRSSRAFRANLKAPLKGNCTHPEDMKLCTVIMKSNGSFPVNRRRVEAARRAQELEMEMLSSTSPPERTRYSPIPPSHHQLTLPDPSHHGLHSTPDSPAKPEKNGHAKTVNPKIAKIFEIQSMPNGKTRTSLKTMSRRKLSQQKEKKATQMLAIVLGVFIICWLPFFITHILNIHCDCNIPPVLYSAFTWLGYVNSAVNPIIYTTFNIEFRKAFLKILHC

Sequence of D(1A) dopamine receptor (Q95136 whole entry): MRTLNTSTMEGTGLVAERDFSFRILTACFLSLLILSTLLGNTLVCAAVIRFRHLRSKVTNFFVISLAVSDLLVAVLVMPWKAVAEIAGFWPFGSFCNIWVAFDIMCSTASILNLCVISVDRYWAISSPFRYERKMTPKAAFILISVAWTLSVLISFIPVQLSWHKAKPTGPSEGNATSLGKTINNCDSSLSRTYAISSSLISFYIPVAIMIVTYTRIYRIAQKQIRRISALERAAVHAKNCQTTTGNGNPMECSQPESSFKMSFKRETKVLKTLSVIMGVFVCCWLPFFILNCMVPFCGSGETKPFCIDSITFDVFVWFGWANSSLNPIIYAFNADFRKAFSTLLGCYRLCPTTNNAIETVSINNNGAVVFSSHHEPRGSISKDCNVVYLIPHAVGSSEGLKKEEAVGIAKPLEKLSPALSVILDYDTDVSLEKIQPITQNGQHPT
Sequence of D(3) dopamine receptor (P35462 whole entry): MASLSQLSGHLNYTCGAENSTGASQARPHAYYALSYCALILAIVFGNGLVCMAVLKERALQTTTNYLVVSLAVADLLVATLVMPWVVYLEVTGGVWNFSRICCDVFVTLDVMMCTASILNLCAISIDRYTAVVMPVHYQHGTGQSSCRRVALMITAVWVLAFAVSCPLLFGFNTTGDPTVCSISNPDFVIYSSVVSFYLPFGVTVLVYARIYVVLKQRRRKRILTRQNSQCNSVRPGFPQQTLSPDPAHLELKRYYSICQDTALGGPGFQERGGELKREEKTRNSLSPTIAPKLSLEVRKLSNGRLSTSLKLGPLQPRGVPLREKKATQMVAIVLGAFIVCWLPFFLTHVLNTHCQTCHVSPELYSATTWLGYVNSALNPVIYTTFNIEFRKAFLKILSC

Row | SMILES | Ki [1] [µM] | Ki [2] [µM] | Ki [3] [µM] | Ki [4] [µM]
1 | Ic1ccc(N2CCN(Cc3cnn4ccccc34)CC2)cc1 | 0.003 | 17 | 6.7 | 1.4
2 | O=C(c1cnn2ccccc12)N1CCN(c2ccc(Cl)cc2)CC1 | 23 | > 100 | 61 | 30
